The results in this text go back to a melting point compilation (Tetko et al.; mined from patent text by program, amines drawn as free bases though some values may be those of a salt).

For `COc1ccc2c(c1)COc1ccc(CC(=O)O)cc1C2=O`, the melting point is 163 to 165 °C. Under `CCOC(=O)c1ncc2[nH]c3c(C(C)(C)C)cc(C(C)(C)C)cc3c2c1C` stands 260 to 263 °C; under `CN1CC(CO)C2c3cccc4c3c(cn4S(=O)(=O)c3ccccc3)CC21` (stereo not given), 124 to 127 °C.

`CCCCCCOc1ccc(-c2ncc(C#N)c(Cl)n2)cc1` displayed a melting point of 133 °C.

The compound `COc1ccc(N(CCCC(=O)O)C(=O)CCN(C(=O)c2ccc(Cl)cc2)c2c(C)cccc2C)cc1` yielded a melting point of 138 to 140 °C.

With `Cn1c(C(F)(F)F)cc(=O)n(-c2c(F)cc(Br)c(O)c2N)c1=O`, the melting point was 98 to 100 °C.

On to `CCOC(=O)c1cccc(-c2nc(-c3ccc(C(C)C)cc3)cs2)c1`, for which the melting point fell in the range of 91 to 92 °C. The compound `COC(=O)CCn1c(C)c(Cc2cccnc2)c2c(CCC(=O)O)cccc21` returned a melting point of 165 to 167 °C. In the case of `CCNC(=O)c1ccsc1`, the melting point was in the range of 115 to 117 °C.

In turn, `CCCCCCCCCCCCC(Oc1ccc(NS(=O)(=O)CCCC)cc1)C(=O)O` (stereo not given) registered a melting point of 80 to 82 °C. Under `CC(c1c[nH]cn1)c1cccc(C(=N)N)c1O` (stereo not given) stands 191 °C. In the case of `CCOC(=O)c1c(S(=O)(=O)Cl)nn2c(C)cc(C)nc12` it was 128 to 130 °C; in that of `Cc1ccc2cc(-c3cccc4ccccc34)nc(Cl)c2c1`, 93 °C; in that of `COCCOCN1C(C)=C(C(=O)O)[C@@H](c2cccc([N+](=O)[O-])c2)C(C(=O)OC)=C1C`, 124 °C. For `CN1CCN(Cc2ccc(NC(=O)c3cccc4cc(Oc5cc(N)ncn5)ccc34)cc2C(F)(F)F)CC1`, the melting point was 127 to 130 °C. Under `CC12CC(=NO)C(C)(C)C1C(O)C2` (stereo not given) stands 130 to 133 °C. Under `CCCCCN1C(=O)C2CC2(c2ccc(N)cc2)C1=O` (stereo not given) stands 113 to 115 °C. In the case of `COc1ccc(CN2CCC3(CCc4c3n(C)c3ccccc43)CC2)cc1` it was 39 to 40 °C.

Consider `COc1ccccc1NC(=O)Nc1nc(Nc2ccccc2-c2ccccc2)nc(N(CCC(=O)O)Cc2ccc(F)c(F)c2)n1`, for which the melting point lay within 115 to 120 °C. Under `CCCCCCCC=CC1=Nc2ccc(F)cc2C(=O)C1C` (stereo not given) stands 192 to 193 °C; under `CC=CCC(O)(C(=O)c1ccccc1)C(=O)c1ccc(C(C)C)cc1` (stereo not given), 108 to 110 °C; under `CCOC(=O)c1ccc(NCc2ccc(OC)cc2)cc1`, 128 to 130 °C. In turn, `NC(=O)c1c(Cl)cc(Cl)c(O)c1Cl` displayed a melting point of 204 to 206 °C. In the case of `CCCCC1(N(C)C)CCC(c2[nH]c3ccccc3c2Cc2ccccc2)CC1` (stereo not given) it was 72 to 78 °C; in that of `C=CCc1cccc2c(=O)cc(-c3ccc(F)cc3)oc12`, 98 to 100 °C; in that of `COc1ccc(OC)c2cc3c(cc12)C1OC3C2=C1CCC(C(C)=O)C2` (stereo not given), 167 to 168 °C. With `CCc1nc([N+](=O)[O-])c(CBr)n1C`, the melting point was 91 to 93 °C. In the case of `CCOC(=O)C(C)(C)Oc1ccc(OCCn2c(=O)sc3cc(C(=O)c4ccccc4)ccc32)cc1` it was 120 to 121 °C; in that of `NS(=O)(=O)c1c(Cl)sc(Cl)c1Br`, 113 to 117 °C. In the case of `CC(=O)OCC(=O)C1=CCC2C3CCC4=CC(=O)C=CC4(C)C3C(O)CC12C` (stereo not given) it was 203 to 205 °C.

Compound `O=C(CNc1ccc2[nH]c(=O)oc2c1)N1CCC(Cc2ccccc2)CC1` had a melting point of 204 to 206 °C. `CCN1c2ncccc2C(=O)N(C)c2ccc(-c3cnn(C(C)=O)c3)nc21` returned a melting point of 186 to 188 °C. In the case of `CN(C)c1ccc(CC(OCC(O)CN2CCCCC2)C(=O)c2ccccc2)cc1` (stereo not given) it was 113 to 115 °C. `CC(C)(C)Oc1cccc(C[C@@H](C(=O)O)[C@@H](O)c2ccc(F)cc2)c1` (racemic) showed a melting point of 131 to 132 °C. Take `CCc1ccc(OC(C)=O)c(C2(OC(C)=O)C(=O)c3ccccc3C2=O)c1`: the melting point fell in the range of 153 to 154 °C.
